Experimental data as given in the NIST ThermoML archive (doi:10.1016/j.jct.2017.07.004).

Columns and labels:
[1] = xn = mol fraction of the nth substance listed; details: 100 kPa, Liquid, x2 = 0; for viscosity: Concentric cylinders viscometry; for mass density: Vibrating tube method
[2] = 100 kPa, Liquid; for viscosity: Concentric cylinders viscometry; for mass density: Vibrating tube method

CCC(C)O (configuration not stated) [butan-2-ol] + CCC=O
[1]
Details	mass density [kg/m3]	viscosity [mPa·s]
293.15 K	806.7	3.67
298.15 K	802.7	3.04
303.15 K	798.4	2.54
308.15 K	794.1	2.13
313.15 K	789.8	1.8
318.15 K	785.2	1.54
323.15 K	780.6	1.33

CCCC(C)O (configuration not stated) [pentan-2-ol]
[2]
Details	viscosity [mPa·s]
298.15 K	3.32
303.15 K	2.81
308.15 K	2.37
313.15 K	1.99
318.15 K	1.66
323.15 K	1.39

CCCC(C)O (configuration not stated) [pentan-2-ol] + CCC=O
[1]
Details	mass density [kg/m3]	viscosity [mPa·s]
293.15 K	809.3	3.97
298.15 K	805.3	3.32
303.15 K	801.2	2.81
308.15 K	797	2.37
313.15 K	792.7	1.99
318.15 K	788.4	1.66
323.15 K	784	1.39

CC(C)O [propan-2-ol] + CCC=O
[1]
Details	mass density [kg/m3]	viscosity [mPa·s]
293.15 K	785.4	2.42
298.15 K	781.1	2.08
303.15 K	776.8	1.8
308.15 K	772.4	1.56
313.15 K	768	1.36
318.15 K	763.4	1.19
323.15 K	758.8	1.05

CCC=O [propanal]
[2]
Details	mass density [kg/m3]	viscosity [mPa·s]
293.15 K	802.4	0.34
298.15 K	796.2	0.33
303.15 K	790.3	0.31
308.15 K	784.5	0.3
313.15 K	779	0.28
318.15 K	773.5	0.27
323.15 K	768.2	0.25
